Reference: patent publication US6994849B2, “Yeast Metschnikowia fructicola NRRL Y-30752 for inhibiting deleterious microorganisms on plants” (State of Israel, Ministry of Agriculture, Agricultural …, priority 2001, dated 2006)

Test system: Mf
Assay: Compatibility of Mf with agrochemicals (CFU in liquid medium)
Format: cell-based, Metschnikowia fructicola
Conditions: TBZ 0.02%; Teldor 0.015%; Mitos 0.025%; Rovral 0.02%; Switch 0.01%; Imazalil 0.005%; 0-48 h, FIG. 8
Description: In order to establish that Mf is suitable for combination with a variety of commonly employed chemical pesticides, ten percent strength of liquid medium (NYDB) with various concentrations of common agrochemicals added was inoculated with a cell suspension of Mf (25 ml of 10^9 cell/ml) and incubated on a rotary shaker at room temperature. The following commercially available agrochemicals were employed: TBZ (0.02%); Teldor (0.015%); Mitos (0.025%); Rovral (0.02%); Switch (0.01%); and Imazalil (0.005%). Samples were aseptically withdrawn from the at 0 time, 24 h and 48 h of incubation. Samples were serially diluted and aliquots of 30 μl of the dilutions were plated on PDA. Plates were incubated at 25° C. for 3–4 days and colony forming units (CFU) were counted.

Q: For C=CCOC(Cn1ccnc1)c1ccc(Cl)cc1Cl (stereo not shown) [Imazalil, 1-(2-2,4-Dichlorophenyl)-2(2-propenyloxy-ethyl)-1Himidazol], which “Effect of agrochemical on growth (CFU) of Mf” value is on record?
A: Its value is “slowed, but did not prevent, its growth”.
